According to ChEMBL document CHEMBL4261580, “Novel antitumor compound optimized from natural saponin Albiziabioside A induced caspase-dependent apoptosis and ferroptosis as a p53 activator through the mitochondrial pathway” (Eur J Med Chem, 2018):
pIC50: −log10 of the molar value. Active and inactive are the calls of the source. No cut-off for these calls is given here.

How the values were obtained:
[1] = molecular target: Cellular tumor antigen p53 (Homo sapiens) (UniProt P04637); assay: Activation of p53 in human HCT116 cells assessed as upregulation of p53 expression after 48 hrs by Western blot analysis; format: cell-based
Cellular tumor antigen p53 (Homo sapiens), sequence (P04637 whole entry, looked up): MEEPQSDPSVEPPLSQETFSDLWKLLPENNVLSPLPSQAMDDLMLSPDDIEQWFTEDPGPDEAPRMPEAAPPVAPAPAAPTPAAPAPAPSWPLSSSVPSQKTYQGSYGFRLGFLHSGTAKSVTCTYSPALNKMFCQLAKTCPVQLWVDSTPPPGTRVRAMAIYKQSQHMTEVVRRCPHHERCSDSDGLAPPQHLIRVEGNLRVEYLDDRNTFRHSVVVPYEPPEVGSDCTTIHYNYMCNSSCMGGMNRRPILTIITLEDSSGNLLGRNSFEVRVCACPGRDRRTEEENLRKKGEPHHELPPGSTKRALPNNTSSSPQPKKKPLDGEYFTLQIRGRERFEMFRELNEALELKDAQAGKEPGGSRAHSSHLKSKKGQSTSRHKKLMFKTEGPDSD

Mus musculus [2] = assay: Toxicity in BALB/c nude mouse xenografted with human HCT116 cells assessed as abnormality in lung at 10 to 20 mg/kg, iv administered once per day by hematoxylin and eosin staining-based microscopic method; format: organism-based; details: in vivo
HCT-116 [3] = assay: Cytotoxicity against human HCT116 cells pretreated with Ca2+ followed by compound addition up to 5 uM measured after 72 hrs by MTT assay; format: functional, cell-based
HCT-116 [4] = assay: Disruption of mitochondrial membrane potential in human HCT116 cells assessed as intact mitochondrial membrane at 5 uM after 72 hrs by JC1 staining-based flow cytometry method (reference value: 0.33%); format: functional
Mus musculus [5] = assay: Toxicity in BALB/c nude mouse xenografted with human HCT116 cells assessed as abnormality in heart at 10 to 20 mg/kg, iv administered once per day by hematoxylin and eosin staining-based microscopic method; format: organism-based; details: in vivo
HCT-116 [6] = assay: Induction of apoptosis in human HCT116 cells assessed as late apoptotic cells at 5 uM after 72 hrs by Annexin V-FITC/propidium iodide staining-based flow cytometric analysis (reference value: 1.08%); format: functional
HCT-116 [7] = assay: Induction of ferroptosis in human HCT116 cells assessed as downregulation of GPX4 expression after 48 hrs by Western blot analysis; format: functional, cell-based
[8] = molecular target: Cellular tumor antigen p53 (Homo sapiens) (UniProt P04637); assay: Activation of p53 in human HCT116 cells assessed as increase in caspase-9 level up to 5 uM after 48 hrs by Western blot analysis; format: cell-based
HCT-116 [9] = assay: Cytotoxicity against human HCT116 cells up to 5 uM after 72 hrs in presence of caspase inhibitor z-VAD-fmk by MTT assay; format: functional, cell-based
[10] = molecular target: Cellular tumor antigen p53 (Homo sapiens) (UniProt P04637); assay: Activation of p53 in human HCT116 cells assessed as increase in cytochrome-c expression up to 5 uM after 48 hrs by Western blot analysis; format: cell-based
HCT-116 [11] = assay: Cytotoxicity in human HCT116 cells pretreated with DFO followed by compound addition up to 5 uM measured after 72 hrs by MTT assay; format: functional, cell-based
HCT-116 [12] = assay: Disruption of mitochondrial membrane potential in human HCT116 cells assessed as collapse of mitochondrial membrane potential at 0.31 uM after 72 hrs by JC1 staining-based flow cytometry method (reference value: […]); format: functional
HCT-116 [13] = assay: Induction of apoptosis in human HCT116 cells assessed as necrotic cells at 1.25 uM after 72 hrs by Annexin V-FITC/propidium iodide staining-based flow cytometric analysis (reference value: 0.76%); format: functional
HCT-116 [14] = assay: Cytotoxicity against human HCT116 cells pretreated with K+ followed by compound addition up to 5 uM measured after 72 hrs by MTT assay; format: functional, cell-based
HCT-116 [15] = assay: Induction of apoptosis in human HCT116 cells assessed as early apoptotic cells at 0.31 uM after 72 hrs by Annexin V-FITC/propidium iodide staining-based flow cytometric analysis (reference value: 5.30%); format: functional
HCT-116 [16] = assay: Antiproliferative activity against human HCT116 cells after 72 hrs by MTT assay; format: functional, cell-based; details: HCT-116, 72 h
HCT-116 [17] = assay: Induction of intracellular ROS generation in human HCT116 cells at 0.31 uM after 72 hrs by DCF-DA-dye based fluorescence microscopy (reference value: 2.74%); format: functional
Bel-7402 = assay: Antiproliferative activity against human Bel7402 cells after 72 hrs by MTT assay; format: functional, cell-based; details: Bel-7402, 72 h
HCT-116 [18] = assay: Cytotoxicity against human HCT116 cells pretreated with ferrostatin-1 followed by compound addition up to 5 uM measured after 72 hrs by MTT assay; format: functional, cell-based
HCT-116 [19] = assay: Induction of apoptosis in human HCT116 cells assessed as cell shrinkage at 0.31 to 5 uM after 24 hrs by DAPI staining-based fluorescence microscopic method; format: functional
HCT-116 [20] = assay: Disruption of mitochondrial membrane potential in human HCT116 cells assessed as collapse of mitochondrial membrane potential at 1.25 uM after 72 hrs by JC1 staining-based flow cytometry method (reference value: […]); format: functional
Mus musculus [21] = assay: Toxicity in BALB/c nude mouse xenografted with human HCT116 cells assessed as abnormality in spleen at 10 to 20 mg/kg, iv administered once per day by hematoxylin and eosin staining-based microscopic method; format: organism-based; details: in vivo
HCT-116 [22] = assay: Cytotoxicity against human HCT116 cells transfected with p53-siRNA up to 5 uM after 72 hrs by MTT assay; format: functional, cell-based
HCT-116 [23] = assay: Cytotoxicity against human HCT116 cells pretreated with Na+ followed by compound addition up to 5 uM measured after 72 hrs by MTT assay; format: functional, cell-based
HCT-116 [24] = assay: Induction of intracellular ROS generation in human HCT116 cells at 5 uM after 72 hrs by DCF-DA-dye based fluorescence microscopy (reference value: 2.74%); format: functional
HCT-116 [25] = assay: Antitumor activity against human HCT116 cells xenografted in BALB/c nude mouse assessed as decrease in tumor weight at 20 mg/kg, iv administered once per day for 14 days and measured every 2 days; format: functional; parameters: scale not given: the % may be the effect or the level left
HCT-116 [26] = assay: Cytotoxicity against human HCT116 cells pretreated with Mn2+ followed by compound addition up to 5 uM measured after 72 hrs by MTT assay; format: functional, cell-based
[27] = Antiproliferative activity against adriamycin-resistant human Bel7402/ADR cells after 72 hrs by MTT assay; format: functional; details: Bel-7402, 72 h
HepG2 = assay: Antiproliferative activity against human HepG2 cells after 72 hrs by MTT assay; format: functional, cell-based; details: HepG2, 72 h

Activity [1]: Dose-dependent effect
Activity [8]: Active
Activity [10]: Active
pIC50 (HCT-116 [16]): 5.28
pIC50 (Bel-7402): 5.28
pIC50 (HepG2): 5.19
Compound: CC(=O)N[C@H]1[C@H](O[C@H]2CC[C@]3(C)[C@H]4CC=C5[C@@H]6CC(C)(C)CC[C@]6(C(=O)OCc6cn(-c7cccc(C(C)=O)c7)nn6)CC[C@@]5(C)[C@]4(C)CC[C@H]3C2(C)C)O[C@H](CO[C@@H]2OC[C@H](O)[C@H](O)[C@@H]2O)[C@@H](O)[C@@H]1O
Activity (Mus musculus [2]): Non-Toxic
Activity (HCT-116 [3]): Active
Activity (HCT-116 [4]): 40.13%
Activity (Mus musculus [5]): Non-Toxic
Activity (HCT-116 [6]): 20.33%
Activity (HCT-116 [7]): Dose-dependent effect
Activity (HCT-116 [9]): inactive
Activity (HCT-116 [11]): inactive
Activity (HCT-116 [12]): 89.03%
Activity (HCT-116 [13]): 5.35%
Activity (HCT-116 [14]): Active
Activity (HCT-116 [15]): 5.94%
Activity (HCT-116 [17]): 12.87%
Activity (HCT-116 [18]): inactive
Activity (HCT-116 [19]): Active
Activity (HCT-116 [20]): 77.36%
Activity (Mus musculus [21]): Non-Toxic
Activity (HCT-116 [22]): inactive
Activity (HCT-116 [23]): Active
Activity (HCT-116 [24]): 29.71%
Activity (HCT-116 [25]): 71.8%
Activity (HCT-116 [26]): Active
pIC50 [27]: 5.23
